In ChEMBL document CHEMBL1126397, “Synthesis of acid stable 5-o-fluoromethyl phosphonates of nucleosides. Evaluation as inhibitors of reverse transcriptase” (Bioorg Med Chem Lett, 1992):
pIC50: −log10 of the molar value. ≈ marks a conversion by molar mass, not a printed value.

Columns and labels:
[1] = test system: Avian myeloblastosis virus; assay: Compound was evaluated as inhibitor of avian myeloblastosis virus (AMV) reverse transcriptase; format: functional, organism-based
[2] = target: T1, Human immunodeficiency virus type 1 reverse transcriptase (Human immunodeficiency virus 1, UniProt Q72547); assay: Compound was evaluated as inhibitor of recombinant HIV-l reverse transcriptase
[3] = target: T2, Avian myoblastosis virus polyprotein II (Avian myeloblastosis virus, UniProt Q86831); assay: Inhibitor of avian myeloblastosis virus AMV reverse transcriptase
T2 sequence (Q86831 whole entry): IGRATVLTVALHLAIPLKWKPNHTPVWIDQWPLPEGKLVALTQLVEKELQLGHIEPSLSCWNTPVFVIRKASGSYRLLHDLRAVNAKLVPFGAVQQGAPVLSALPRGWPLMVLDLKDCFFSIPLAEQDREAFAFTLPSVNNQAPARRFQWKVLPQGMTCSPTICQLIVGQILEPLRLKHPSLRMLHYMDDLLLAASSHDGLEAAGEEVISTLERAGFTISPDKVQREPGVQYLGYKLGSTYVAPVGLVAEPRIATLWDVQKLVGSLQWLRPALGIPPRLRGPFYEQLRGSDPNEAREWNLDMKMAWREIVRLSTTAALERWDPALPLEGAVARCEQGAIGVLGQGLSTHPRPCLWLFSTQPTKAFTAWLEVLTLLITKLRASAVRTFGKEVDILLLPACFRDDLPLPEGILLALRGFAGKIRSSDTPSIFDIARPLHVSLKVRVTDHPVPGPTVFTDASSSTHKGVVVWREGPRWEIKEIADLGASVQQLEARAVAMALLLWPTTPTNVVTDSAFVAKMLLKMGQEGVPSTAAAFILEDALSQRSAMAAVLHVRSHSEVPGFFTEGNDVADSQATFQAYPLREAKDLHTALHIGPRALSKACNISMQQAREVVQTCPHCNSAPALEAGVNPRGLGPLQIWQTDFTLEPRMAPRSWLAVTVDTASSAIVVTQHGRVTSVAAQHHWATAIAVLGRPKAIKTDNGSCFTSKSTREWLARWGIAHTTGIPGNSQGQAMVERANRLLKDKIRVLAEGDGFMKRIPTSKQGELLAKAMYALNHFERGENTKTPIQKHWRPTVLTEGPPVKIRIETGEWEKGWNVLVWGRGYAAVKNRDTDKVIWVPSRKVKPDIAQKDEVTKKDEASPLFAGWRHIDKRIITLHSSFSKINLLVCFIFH

[4] = test system: Avian myeloblastosis virus; assay: The compound was evaluated as inhibitor of avian myeloblastosis virus (AMV) reverse transcriptase; format: functional, organism-based
[5] = target: T1, Human immunodeficiency virus type 1 reverse transcriptase; assay: The compound was evaluated as inhibitor of recombinant HIV-l reverse transcriptase

SMILES	IC50 [4] [µg/mL]	pIC50 [5]	also measured
Cc1cn([C@H]2C[C@H](N=[N+]=[N-])[C@@H](CO)O2)c(=O)[nH]c1=O [ZIDOVUDINE]			IC50 [1]: 600 µg/mL (≈ 2250 µM); pIC50 [2]: 2.52
O=c1ccn(C2O[C@H](COP(=O)(O)C(F)F)[C@@H](O)[C@H]2O)c(=O)[nH]1 (stereo partly drawn)			pIC50 [3]: < 2.95
Cc1cn([C@H]2C[C@H](N=[N+]=[N-])[C@@H](COP(=O)(O)O)O2)c(=O)[nH]c1=O [AZIDOTHYMIDINE MONOPHOSPHATE]	900	< 2.54	
O=c1[nH]c(=O)n([C@H]2C[C@H](O)[C@@H](COP(=O)(O)C(F)(F)F)O2)cc1F		4.32	
Cc1cn(C2CC(N=[N+]=[N-])C(COP(=O)(O)C(F)(F)F)O2)c(=O)[nH]c1=O (stereo not drawn)		4.52	
Cc1cn(C2CC(N=[N+]=[N-])C(COP(=O)(O)CF)O2)c(=O)[nH]c1=O (stereo not drawn)		3.96	
Nc1ncnc2c1ncn2C1O[C@H](COP(=O)(O)C(F)F)[C@@H](O)[C@H]1O (stereo partly drawn)			pIC50 [3]: < 2.98
Cc1cn(C2CC(N=[N+]=[N-])C(COP(=O)(O)C(F)F)O2)c(=O)[nH]c1=O (stereo not drawn)		4.26	

Second part, led by results:

IC50 [4] [µg/mL]	SMILES	pIC50 [5]	also measured
150 (≈ 378 µM)	Nc1nc(O)c2ncn(C3O[C@H](COP(=O)(O)C(F)F)[C@@H](O)[C@H]3O)c2n1 (stereo partly drawn)		
0.06	Cc1cn([C@H]2C[C@H](N=[N+]=[N-])[C@@H](CO[P@](=O)(O)O[P@](=O)(O)OP(=O)(O)O)O2)c(=O)[nH]c1=O [ZIDOVUDINE TRIPHOSPHATE]	6.63	
